Reference: PubChem BioAssay AID330 (DTP/NCI, 2004)
Values joined by “and” are separate entries in the source; they are usually repeats but may differ in a detail not shown here. Identical values can stand only once. Toxic doses and inconclusive results are not listed. How the source made its calls: active means survival T/C of 150% or more; inactive means T/C below 125% in these data.

Test system: P388 leukemia ip, CD2F1 mice, survival T/C
Test: NCI In Vivo Anticancer Drug Screen. Data for tumor model P388 Leukemia (intraperitoneal) in CD2F1 (CDF1) mice
Conditions: endpoint: median survival time, higher = longer survival
Outline: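 Mice carrying the transplanted tumor received test compound or vehicle. Survival was recorded in each group, and the value is the treated-group measurement divided by that of the vehicle-treated control group.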

[1] = dose: 6.25 mg/kg/injection, schedule: Q01DX009 (ip), vehicle: Klucel (hydroxypropylcellulose) (HPC)
[2] = dose: 12.5 mg/kg/injection, schedule: Q01DX009 (ip), vehicle: Klucel (hydroxypropylcellulose) (HPC)
[3] = dose: 25.0 mg/kg/injection, schedule: Q01DX009 (ip), vehicle: Klucel (hydroxypropylcellulose) (HPC)
[4] = dose: 100.0 mg/kg/injection, schedule: Q01DX009 (ip), vehicle: saline with Tween-80
[5] = dose: 200.0 mg/kg/injection, schedule: Q01DX009 (ip), vehicle: saline with Tween-80
[6] = dose: 50.0 mg/kg/injection, schedule: Q01DX005 (ip), vehicle: saline
[7] = dose: 100.0 mg/kg/injection, schedule: Q01DX005 (ip), vehicle: saline
[8] = dose: 200.0 mg/kg/injection, schedule: Q01DX005 (ip), vehicle: saline
[9] = dose: 50.0 mg/kg/injection, schedule: Q01DX009 (ip), vehicle: saline with Tween-80
[10] = dose: 12.5 mg/kg/injection, schedule: Q01DX005 (ip), vehicle: Klucel (hydroxypropylcellulose) (HPC)
[11] = dose: 25.0 mg/kg/injection, schedule: Q01DX005 (ip), vehicle: Klucel (hydroxypropylcellulose) (HPC)
[12] = dose: 50.0 mg/kg/injection, schedule: Q01DX005 (ip), vehicle: Klucel (hydroxypropylcellulose) (HPC)
[13] = dose: 50.0 mg/kg/injection, schedule: Q01DX005 (ip), vehicle: saline with Tween-80
[14] = dose: 100.0 mg/kg/injection, schedule: Q01DX005 (ip), vehicle: saline with Tween-80
[15] = dose: 200.0 mg/kg/injection, schedule: Q01DX005 (ip), vehicle: saline with Tween-80
[16] = dose: 100.0 mg/kg/injection, schedule: Q01DX005 (ip), vehicle: Klucel (hydroxypropylcellulose) (HPC)
[17] = dose: 200.0 mg/kg/injection, schedule: Q01DX005 (ip), vehicle: Klucel (hydroxypropylcellulose) (HPC)
[18] = dose: 50.0 mg/kg/injection, schedule: Q04DX003 (ip), vehicle: saline sonified
[19] = dose: 100.0 mg/kg/injection, schedule: Q04DX003 (ip), vehicle: saline sonified
[20] = dose: 200.0 mg/kg/injection, schedule: Q04DX003 (ip), vehicle: saline sonified

Measured: T/C

O=C(O)c1ccc(S(=O)(=O)OCCCl)cc1
inactive: [1] 107 % of control | [2] 100 % of control | [3] 110 % of control

N=c1c2ccccc2nc2n1CCCCC2
inactive: dose: 25.0 mg/kg/injection, schedule: Q04DX003 (ip), vehicle: saline 103 % of control | dose: 50.0 mg/kg/injection, schedule: Q04DX003 (ip), vehicle: saline 95 % of control

COc1ccc(N=C/C=C/c2ccccc2)cc1
inactive: [4] 118 % of control | [5] 118 % of control | dose: 400.0 mg/kg/injection, schedule: Q01DX009 (ip), vehicle: saline with Tween-80 118 % of control

C=C[C@H]1[C@H](OC2OC(CO)C(O)C(O)C2O)OC=C2C(=O)N3CCS[C@H]3C[C@H]21 (stereo partly specified)
inactive: dose: 9.38 mg/kg/injection, schedule: Q01DX005 (ip), vehicle: Klucel (hydroxypropylcellulose) (HPC) 97 % of control | dose: 18.75 mg/kg/injection, schedule: Q01DX005 (ip), vehicle: Klucel (hydroxypropylcellulose) (HPC) 98 % of control | dose: 37.5 mg/kg/injection, schedule: Q01DX005 (ip), vehicle: Klucel (hydroxypropylcellulose) (HPC) 107 % of control | dose: 75.0 mg/kg/injection, schedule: Q01DX005 (ip), vehicle: Klucel (hydroxypropylcellulose) (HPC) 95 % of control | dose: 150.0 mg/kg/injection, schedule: Q01DX005 (ip), vehicle: Klucel (hydroxypropylcellulose) (HPC) 98 % of control

COc1ccc(NS(=O)(=O)c2ccc(F)cc2)cc1
inactive: dose: 60.0 mg/kg/injection, schedule: Q01DX005 (ip), vehicle: saline with Tween-80 99 % of control | dose: 120.0 mg/kg/injection, schedule: Q01DX005 (ip), vehicle: saline with Tween-80 106 % of control | dose: 240.0 mg/kg/injection, schedule: Q01DX005 (ip), vehicle: saline with Tween-80 106 % of control

CC(C)C1OCN2CCCCC12 (stereo unspecified)
inactive: [6] 105 % of control | [7] 108 % of control | [8] 116 % of control

CC(C(=O)N1c2ccccc2Sc2ccccc21)[N+](C)(C)C (stereo unspecified)
inactive: dose: 12.5 mg/kg/injection, schedule: Q01DX009 (ip), vehicle: saline with Tween-80 110 % of control | dose: 25.0 mg/kg/injection, schedule: Q01DX009 (ip), vehicle: saline with Tween-80 110 % of control | [9] 100 % of control

Cc1cc2nc3c(C4OCC(O)C4O)nn(-c4ccc(F)cc4)c3nc2cc1C (stereo unspecified)
inactive: [10] 95 % of control | [11] 90 % of control | [12] 88 % of control

CCCCOc1ccc2nc(C)cc(N/N=C/c3ccc(OC)c4ccccc34)c2c1
inactive: [10] 94 % of control | [11] 94 % of control | [12] 89 % of control and 97 % of control

Cc1cc(=O)c2c([nH]1)c1c(c3[nH]c(C)cc(=O)c32)Oc2ccccc2O1
inactive: [13] 93 % of control | [14] 95 % of control | [15] 97 % of control

CC(=O)OCC1=C(COC(C)=O)C(=O)c2cc3ccccc3cc2C1=O
inactive: dose: 25.0 mg/kg/injection, schedule: Q01DX001 (ip), vehicle: saline with Tween-80 92 % of control | dose: 50.0 mg/kg/injection, schedule: Q01DX001 (ip), vehicle: saline with Tween-80 92 % of control | dose: 100.0 mg/kg/injection, schedule: Q01DX001 (ip), vehicle: saline with Tween-80 94 % of control | dose: 200.0 mg/kg/injection, schedule: Q01DX001 (ip), vehicle: saline with Tween-80 101 % of control

COc1cc2ccnc(C3(O)CCN(C)CC3)c2cc1OC
inactive: [1] 94 % of control | [2] 98 % of control | [3] 93 % of control | dose: 50.0 mg/kg/injection, schedule: Q01DX001 (ip), vehicle: Klucel (hydroxypropylcellulose) (HPC) 102 % of control | dose: 100.0 mg/kg/injection, schedule: Q01DX001 (ip), vehicle: Klucel (hydroxypropylcellulose) (HPC) 105 % of control | dose: 200.0 mg/kg/injection, schedule: Q01DX001 (ip), vehicle: Klucel (hydroxypropylcellulose) (HPC) 97 % of control

CN1C(=S)C(=N)OC1c1ccccc1F (stereo unspecified)
inactive: dose: 60.0 mg/kg/injection, schedule: Q01DX005 (ip), vehicle: Klucel (hydroxypropylcellulose) (HPC) 106 % of control | dose: 120.0 mg/kg/injection, schedule: Q01DX005 (ip), vehicle: Klucel (hydroxypropylcellulose) (HPC) 105 % of control | dose: 240.0 mg/kg/injection, schedule: Q01DX005 (ip), vehicle: Klucel (hydroxypropylcellulose) (HPC) 103 % of control

Cc1c2c(cc3c4ccccc4n(C)c13)C(=O)OC2=O
inactive: dose: 0.78 mg/kg/injection, schedule: Q01DX005 (ip), vehicle: Klucel (hydroxypropylcellulose) (HPC) 99 % of control | dose: 1.56 mg/kg/injection, schedule: Q01DX005 (ip), vehicle: Klucel (hydroxypropylcellulose) (HPC) 93 % of control | dose: 3.12 mg/kg/injection, schedule: Q01DX005 (ip), vehicle: Klucel (hydroxypropylcellulose) (HPC) 89 % of control | dose: 6.25 mg/kg/injection, schedule: Q01DX005 (ip), vehicle: Klucel (hydroxypropylcellulose) (HPC) 89 % of control | [12] 89 % of control | [16] 88 % of control | [17] 97 % of control

c1ccc(-c2[nH]nc3nc4c(nc23)CCCC4)cc1
inactive: [12] 89 % of control | [16] 99 % of control | [17] 92 % of control

COc1ccc2nc(N/N=C(/c3ccccc3)c3ccccn3)cc(C)c2c1
inactive: [13] 107 % of control | [14] 100 % of control | [15] 100 % of control

c1ccc2c(c1)Nc1nccnc1[Se]2
inactive: dose: 100.0 mg/kg/injection, schedule: Q04DX002 (ip), vehicle: Klucel (hydroxypropylcellulose) (HPC) 100 % of control | dose: 200.0 mg/kg/injection, schedule: Q04DX002 (ip), vehicle: Klucel (hydroxypropylcellulose) (HPC) 101 % of control | dose: 400.0 mg/kg/injection, schedule: Q04DX002 (ip), vehicle: Klucel (hydroxypropylcellulose) (HPC) 101 % of control

N#CN=C(N)N
inactive: dose: 18.8 mg/kg/injection, schedule: Q01DX005 (ip), vehicle: saline 115 % of control | dose: 37.5 mg/kg/injection, schedule: Q01DX005 (ip), vehicle: saline 112 % of control | dose: 75.0 mg/kg/injection, schedule: Q01DX005 (ip), vehicle: saline 98 % of control | [7] 96 % of control | dose: 150.0 mg/kg/injection, schedule: Q01DX005 (ip), vehicle: saline 105 % of control | [8] 102 % of control | dose: 300.0 mg/kg/injection, schedule: Q01DX005 (ip), vehicle: saline 118 % of control | dose: 400.0 mg/kg/injection, schedule: Q01DX005 (ip), vehicle: saline 99 % of control | dose: 600.0 mg/kg/injection, schedule: Q01DX005 (ip), vehicle: saline 112 % of control | dose: 800.0 mg/kg/injection, schedule: Q01DX005 (ip), vehicle: saline 101 % of control

O=C(O)CC1(c2ccccc2)CCCCC1
inactive: [9] 103 % of control | [4] 100 % of control | [5] 102 % of control

CCCCCCN(CCCCCC)C(=N)c1ccnc2ccccc12
inactive: dose: 12.5 mg/kg/injection, schedule: Q01DX005 (ip), vehicle: saline 92 % of control | dose: 25.0 mg/kg/injection, schedule: Q01DX005 (ip), vehicle: saline 100 % of control | [6] 87 % of control and 94 % of control

CC(C)(O)Cn1ccccc1=O
inactive: dose: 100.0 mg/kg/injection, schedule: Q04DX003 (ip), vehicle: saline 98 % of control | dose: 200.0 mg/kg/injection, schedule: Q04DX003 (ip), vehicle: saline 97 % of control | dose: 400.0 mg/kg/injection, schedule: Q04DX003 (ip), vehicle: saline 104 % of control

Nc1cc2ccncc2c2ccccc12
inactive: [18] 100 % of control | [19] 90 % of control | [20] 95 % of control

CN(C)c1ncnc2c1cnn2C
inactive: [9] 109 % of control | [18] 100 % of control | [19] 100 % of control | [20] 109 % of control
